Values quoted from earlier work as cited in patent US20220313772A1, “Method of Treating a Child with Central Precocious Puberty using an Extended Release Composition” (Tolmar International Limited, priority 2019, published 2022).

Settings: in vivo

## CCNC(=O)[C@@H]1CCCN1C(=O)[C@H](CCCNC(=N)N)NC(=O)[C@H](CC(C)C)NC(=O)[C@@H](CC(C)C)NC(=O)[C@H](Cc1ccc(O)cc1)NC(=O)[C@H](CO)NC(=O)[C@H](Cc1c[nH]c2ccccc12)NC(=O)[C@H](Cc1c[nH]cn1)NC(=O)[C@@H]1CCC(=O)N1 [Leuprolide acetate, leuprolide acetate]
  adverse effects at high dose: no adverse effects differing from those observed with a 1 mg/day dose
